According to paper PMC13091788 (NPJ Aging, 2026):
Read-outs that look alike come from different tables or passages of the source.

Tests used:
[1] = tested on: MITOL and mitochondrial proteins in C2C12 myoblasts; assay: Western blot of mitochondrial proteins in C2C12 myoblasts; assay type: cell-based, mouse; settings: 48 h; for levels of Tom20, Mfn2, HSP60 and ATP5a proteins / protein level of MITOL: C2C12, 5 μM or 10 μM
Procedure: (§1) Murine myoblast C2C12 cells were used for various cellular experiments in this study. Two different sources of C2C12 cells were used depending on the experiment: C2C12 cells obtained from RIKEN BRC (RCB0987) were used for gene expression, mtDNA quantification, and mitochondrial morphology analysis; C2C12 cells from ATCC (CRL-1772) were used for OCR analysis. Cells were cultured in Dulbecco’s Modified Eagle Medium (DMEM; Sigma-Aldrich or Nacalai Tesque), supplemented with 10% FBS and 1% penicillin–streptomycin. Cells were maintained in a humidified incubator at 37°C with 5% CO2.
For cellular experiments, berberine or quinoid-type berberrubine (Q-BRB) was dissolved in DMSO, and berberrubine acetic acid adduct (AcA-BRB) was dissolved in distilled H2O. Each compound was diluted in culture medium to the indicated final concentrations.
Proteins in sample buffer were separated by SDS-PAGE and transferred to Immobilon-P PVDF membranes (IPVH00010, Millipore). Blots were probed with the indicated antibodies, and protein bands on the blot were visualized using Chemi-Lumi One L (07880-70, Nacalai Tesque) or Immobilon Western Chemiluminescent HRP Substrate (WBKLS0500, Millipore). Band images were captured using a LuminoGraph I imager (WSE-6100, ATTO). Relative band intensities were quantified using Fiji/ImageJ software. Unprocessed western blot images corresponding to the data presented in the main and supplementary figures are provided in Supplementary Figures 11–16.

[2] = Hepatic microsomal stability assay, mouse; assay type: in vitro ADME; settings: CLint, 1 μM, 0.2 mg/mL microsomes, NADPH, 30 min
Procedure: (§2) Disappearance of the parent compound over time was measured by using the amount of drug at time zero as a reference. After 5 min of preincubation, 1 mM NADPH (final concentration; the same applies to the following) was added to a mixture containing 1 μM of the compound, 0.2 mg/mL of human or mouse liver microsomes (Sekisui XenoTech), 1 mM EDTA and 0.1 M phosphate buffer (pH 7.4). The mixture solution was incubated at 37 °C for 30 min with rotation at 60 rpm. An aliquot of 50 μL of the incubation mixture was added to 250 μL of chilled acetonitrile/internal standard (IS, methyltestosterone). After centrifugation at 3150 × g for 15 min at 4 °C, the supernatants were analyzed by LC-MS/MS. Hepatic microsomal stability (mL/min/kg, CLint) was calculated according to a previous report, using 48.8 (human) or 45.4 (mouse) mg MS protein/g liver and 25.7 (human) or 87.5 (mouse) g liver/kg body weight as scaling factors. Two technical replicates were performed.

C2C12 cells = assay: Quantification of mitochondrial DNA (mtDNA/nDNA ratio); assay type: cell-based, mouse; settings: C2C12, 10 μM
Procedure: as §1
To generate mMITOL-knockout C2C12 cells, CRISPR-Cas9 vectors were constructed. Single-guide RNAs (sgRNAs) targeting the mouse MITOL gene were designed using the online tool CRISPOR (http://crispor.org). The oligonucleotide pair corresponding to the mMITOL guide RNA (gRNA sequence, 5′-[…]-3′) was annealed and ligated into the PX459 vector (48139, Addgene). C2C12 cells were transfected using Lipofectamine 3000 (Thermo Fisher Scientific), and knockout clones were selected by serial dilution.
To assess mitochondrial DNA (mtDNA) content, the mtDNA/nuclear DNA (nDNA) ratio was determined by extracting DNA from C2C12 cells using the NucleoSpin Tissue Kit (Takara Bio), followed by real-time quantitative PCR analysis with specific primer sets for mtDNA (16S rRNA or ND1) and nDNA (Hexokinase 2; HK2) (Supplementary Table 2). Real-time quantitative PCR was performed using TB Green Premix Ex Taq II (Takara Bio) and a Thermal Cycler Dice Real-Time System (Takara Bio). The analysis of mtDNA/nDNA ratios was conducted using the ΔΔCt method as previously described.

PAMPA assay = assay type: in vitro ADME; settings: 37 °C, 4 h
Procedure: To determine the passive membrane diffusion rates, Corning Gentest Pre-coated PAMPA Plate System was used. The acceptor plate was prepared by adding 200 μL of 0.1 M phosphate buffer (pH 4.5–8.6) supplemented with 5% DMSO to each well, and then 300 μL of 30 μM compounds in 0.1 M phosphate buffer (pH 4.5–8.6) with 5% DMSO were added to the donor wells. The acceptor plate was then placed on top of the donor plate and incubated at 37 °C for 4 h without agitation. After the incubation, the plates were separated and the solutions from each well of both the acceptor plate and the donor plate were transferred to 96-well plates and mixed with acetonitrile. The final concentrations of compounds in both donor and acceptor wells, as well as the concentrations of the initial donor solutions, were analyzed using liquid chromatography-tandem mass spectrometry (LC-MS/MS). The permeability of the compounds was calculated as described in a previous study. […] Two technical replicates were performed.

[3] = Unbound fraction in mouse plasma (equilibrium dialysis); assay type: in vitro ADME; settings: pH 7.4, equilibrium dialysis 6 h, 37 °C, read-out: Plasma protein binding (fraction unbound) mouse (pH7.4)
Procedure: An equilibrium dialysis apparatus was used to determine the unbound fraction for each compound in human or mouse plasma. High Throughput Dialysis Model HTD96b and Dialysis Membrane Strips MWCO 12–14 kDa (HTDialysis) were used. Plasma was spiked with the test compound (1 μM), and 150 μL aliquots were loaded into the apparatus and dialyzed versus 150 μL of 0.1 M phosphate buffer (pH 7.4) at 37 °C for 6 h by rotation at 80 rpm. The unbound fraction was calculated as the ratio of receiver side (buffer) to donor side (plasma) concentrations. Two technical replicates were performed.

[4] = Water solubility, roughly examined; assay type: physicochemical
Procedure: Finally, we compared the water solubility of the three berberrubine forms. The solubility of three compounds, the reddish-black solid (quinoid-type berberrubine), the reddish-brown solid (berberrubine acetic acid salt), and the yellow solid (berberrubine acetic acid adduct), in water was roughly examined. […] On the other hand, the reddish-brown solid dissolved in about 30 mg in 1 mL of water.

[5] = Hepatic microsomal stability assay, human; assay type: in vitro ADME; settings: CLint, 1 μM, 0.2 mg/mL microsomes, NADPH, 30 min
Procedure: as §2

[6] = donor/acceptor pH 6.4/7.4, 30 μM, read-out: Membrane permeability pH6.4/7.4
[7] = donor/acceptor pH 7.4/7.4, 30 μM, read-out: Membrane permeability pH7.4/7.4

Compound | levels of Tom20, Mfn2, HSP60 and ATP5a proteins [1] | protein level of MITOL [1] | Liver microsomal metabolic stability mouse (pH7.4) [2] | mitochondrial abundance (mtDNA 16S rRNA or ND1 / nuclear HK2) (C2C12 cells) | Papp at 4 h, 30 μM (PAMPA assay; donor/acceptor pH 4.5/4.5, 30 μM, read-out: Membrane permeability pH4.5/4.5) | Papp at 4 h, 30 μM (PAMPA assay; [6]) | Papp at 4 h, 30 μM (PAMPA assay; [7]) | fraction unbound at 6 h, 1 μM [3] | solubility ([4]; roughly examined) | Liver microsomal metabolic stability human (pH7.4) [5] | MITOL expression (western blot) ([1]; C2C12, 10 μM, berberrubine used as quinoid-type form) | expression of other mitochondrial-associated proteins (Tom20, Mfn2, HSP60, ATP5a) ([1]; C2C12, 10 μM, quinoid-type form) | protein levels of OPA1, Fis1 and MFF ([1]; C2C12, Q-BRB or AcA-BRB 10 μM) | dissolution in 1000 mL of water [4] | Papp at 4 h, 30 μM (PAMPA assay; donor/acceptor pH 8.6/8.6, 30 μM, read-out: Membrane permeability pH8.6/8.6)
COc1ccc2cc3[n+](cc2c1O)CCc1cc2c(cc1-3)OCO2 [AcA-BRB, berberrubine acetic acid adduct] | dose-dependent trend in elevating | significantly increased | 1794 mL/min/kg | significantly increased | 0.22 ×10⁻⁶ cm/s | 1.87 ×10⁻⁶ cm/s | 1.8 ×10⁻⁶ cm/s | 0.203 | ≥ 1000 mg/mL | < 22.0 mL/min/kg |  |  |  |  | 
COc1ccc2cc3[n+](cc2c1O)CCc1cc2c(cc1-3)OCO2 [berberrubine] |  |  |  |  |  |  |  |  |  |  | significantly upregulated | markedly increased | increased | did not dissolve | 
COc1ccc2cc3n(cc-2c1=O)CCc1cc2c(cc1-3)OCO2 [Q-BRB, quinoid-type berberrubine] | dose-dependent trend in elevating | significantly increased | 1839 mL/min/kg | significantly increased |  | 1.63 ×10⁻⁶ cm/s | 2.9 ×10⁻⁶ cm/s | 0.162 |  | < 22.0 mL/min/kg |  |  |  | not possible to observe any dissolution | 2.6 ×10⁻⁶ cm/s
